{"source": "patent EP3016671B1", "about": "“ACTIVELY T[…] PROTEASE-RESISTANT PEPTIDES AS BBB SHUTTLES AND SHUTTLE-CARGO CONSTRUCTS” (Universitat de Barcelona, priority 2013, dated 2015)", "key": {"[1]": {"assay": "Stability of the shuttles in human serum", "type": "in vitro ADME", "details": "HBSS, 37 °C, 90% human serum", "description": "Regarding to the stability study in human serum of the BBB-shuttle (examples 1, 2, 3 and 5), the peptides were incubated at a concentration of 400 µM in buffer HBSS at 37 °C in the presence of 90% human serum. At a range of times, 100 µL aliquots were collected to which methanol was added in order to precipitate the serum proteins. Samples were centrifuged, filtered and analyzed by HPLC-UV and MALDI-TOF MS to determine the degree of degradation of the BBB-shuttle. […] The half life of the derivative bearing a single disulfide bond was 3 h (examples 2), whereas that of the linear version was no more than 8 min."}, "[2]": {"assay": "Transport across the BBB, in vitro bovine cell assay (co-culture, transwell)", "details": "bovine, pH 7.4", "description": "(§1) The evaluation method chosen to test the compounds of formula (I) and (II) of the invention was a cell-based assay consisting of a co-culture of brain endothelial cells and astrocytes, which allows to evaluate or to predict the transport of compounds through the BBB. The co-culture method used was described by Gaillard and de Boer in 2008 (Gaillard, PJ et al. \"2B-Trans technology: targeted drug delivery across the blood-brain barrier\" Methods Mol Biol 2008, vol. 437 pp. 161-175) and consists in seeding of rat astrocytes in a side of a polycarbonate filter (transwell) and bovine brain endothelial cells on the other side of the filter. Under these conditions endothelial cells are able to reach the confluence mimicking the BBB. […] Is commonly used model for permeation studies and toxicity of compounds across the BBB.\n(§2) The co-culture assay was used to determine the capacity of the constructs cargo-shuttle to cross the BBB. The apparent permeability of the compounds was measured in triplicate at a concentration of 200 µ M for Examples 1, 2, 3, 5, 10, 13, 15, 16, 17 and 19 and at a concentration of 1.75 µM for Example 21. All the assays were performed with transendothelial electrical resistance values equal or higher than 100 Ω · cm^2 and were carried out in the presence of lucifer yellow to assess the integrity of the cell membrane during the test. The permeability tests were performed in Ringer-HEPES buffer at pH 7.4. The compound of interest was dissolved in the buffer to the desired concentration.\n(§3) Once the endothelial cells were confluent on the filters (transwells) these were washed with Ringer-HEPES buffer. The acceptor well was filled with 800 µ L of Ringer-HEPES buffer and the donor well with 200 µL of the solution of the compound to be studied. The system was incubated at 37 °C and 5% CO2 for 2 h. After that time the content of the acceptor and donor compartments were analyzed by HPLC-UV, direct ELISA or fluorescence (depending on cargo anchored to the shuttle). […] The apparent permeability was calculated using the following equation: Papp = (dQ/dt) * (1/A) * (1/CO) (cm/s), where (dQ/dt) is the amount of compound present in the compartment acceptor function of time (nmol/s). A is the area of the filter(cm2) and CO is the initial concentration of the compound applied in the donor compartment (nmol/mL)."}, "[3]": {"tested_on": "bovine brain endothelial cells", "assay": "Transport across the BBB, in vitro bovine cell assay (co-culture, transwell)", "details": "bovine cell model, 2 h, 37 °C, Ringer-HEPES pH 7.4; 200 µM (Example 21: 1.75 µM)", "description": "as §1, §2, §3"}, "[4]": {"tested_on": "human endothelial cells derived from hematopoietic stem cells", "assay": "Transport across the BBB, in vitro human cell assay (co-culture, transwell)", "type": "in vitro ADME", "details": "human cell model, 37 °C, 25 nM Examples 22 and 23, 30 nM Example 24, 5 nM Example 25; for Transport (%) (2h): Ringer-HEPES pH 7.4, 200 µM peptides", "description": "(§4) Due to the great interest to know whether the cargo-BBB shuttle conjugates would be transported across human brain endothelial cells, some of the most relevant cargoes for therapy and diagnosis were assayed in a novel human-based BBB cell model. In this case, the co-culture method used was described by Cecchelli et al. (Cecchelli et al. PloS One. 2014. vol9. pp. e99733) and consists in seeding bovine pericytes in the bottom of a 12-well plate and human endothelial cells derived from hematopoietic stem cells on a transwell filter.\n(§5) The compound of interest was disolved or buffer-exhanged and diluted to the desired concentration.\n(§6) Cetuximab and cetuximab conjugates were radiolabelled to be assayed in the cell model. Pierce^(R) iodination beads were used following the instructions provided by the manufacturer.\n(§7) The apparent permeability was calculated using the same equation as for the bovine cell model."}, "[5]": {"assay": "Transport across the BBB, in vitro human cell assay (co-culture, transwell)", "type": "in vitro ADME", "details": "human cell model, 37 °C, Ringer-HEPES pH 7.4, 200 µM peptides, 25 nM Examples 22 and 23, 30 nM Example 24, 5 nM Example 25, read-out: Papp (x 10^6)", "description": "as §4, §5, §6, §7"}}, "note": "Positions of bridges follow the written chain, without caps; N, C: chain ends. Non-standard residues stand in square brackets, D forms with d. Residues, ends and D or L forms follow the SMILES beside them. Dopa = N[C@@H](Cc1ccc(O)c(O)c1)C(=O)O; Dap = NC[C@H](N)C(=O)O", "data": [{"compound": "CC(C)C[C@@H]1NC(=O)[C@H](C)NC(=O)[C@H]([C@@H](C)O)NC(=O)[C@H](CCC(=O)O)NC(=O)[C@@H]2CCCN2C(=O)[C@H](C)NC(=O)[C@H](CCCCN)NC(=O)[C@@H](N)CNC(=O)C[C@@H](C(N)=O)NC1=O", "note": "[Example 3, H-Dap-Lys-Ala-Pro-Glu-Thr-Ala-Leu-Asp-NH2] (H-[Dap]KAPETALD-NH2; lactam 1-9)", "values": [{"measurement": "degradation in human serum", "setting": "[1]; 400 µM, 24 h", "result": "No degradation"}, {"measurement": "Papp at 2 h", "setting": "[2]", "result": "5.1 ± 0.6", "unit": "×10⁻⁶ cm/s"}, {"measurement": "Transport (%) (2h)", "setting": "[3]", "result": "6.0±0.7", "unit": "%"}, {"measurement": "Transport (%) (2h)", "setting": "[4]", "result": "10.9±1.1", "unit": "%"}]}, {"compound": "CC(C)C[C@@H]1NC(=O)[C@H](C)NC(=O)[C@H]([C@@H](C)O)NC(=O)[C@H](CCC(=O)O)NC(=O)[C@@H]2CCCN2C(=O)[C@H](C)NC(=O)[C@H](CCCCN)NC(=O)[C@@H](NC(=O)[C@@H](N)Cc2ccc(O)c(O)c2)CNC(=O)C[C@@H](C(N)=O)NC1=O", "note": "[Example 18, L-Dopa-Dap-Lys-Ala-Pro-Glu-Thr-Ala-Leu-Asp-NH2] (H-[Dopa][Dap]KAPETALD-NH2; lactam 2-10)", "values": [{"measurement": "Transport (%) (2h)", "setting": "[4]", "result": "6.6±2.1", "unit": "%"}, {"measurement": "Papp at 2 h", "setting": "[5]", "result": "4 ± 1.3", "unit": "×10⁻⁶ cm/s"}]}, {"compound": "CC(C)C[C@@H]1NC(=O)[C@H](C)NC(=O)[C@H]([C@@H](C)O)NC(=O)[C@H](CCC(=O)O)NC(=O)[C@@H]2CCCN2C(=O)[C@H](C)NC(=O)[C@H](CCCCN)NC(=O)[C@@H]2CSSC[C@@H](C(=O)N[C@@H](Cc3c[nH]cn3)C(N)=O)NC(=O)[C@H](C)NC(=O)[C@H](C)NC(=O)[C@H](C)NC(=O)[C@H](CSSC[C@H](NC(=O)CNC(=O)[C@H](CC(=O)O)NC(=O)[C@H](Cc3ccccc3)NC(=O)[C@H](Cc3ccccc3)NC(=O)[C@@H]3CCCN3C(=O)[C@@H](N)CC(C)C)C(=O)N[C@@H](CC(N)=O)C(=O)N2)NC1=O", "note": "[Example 19] (H-LPFFDGCNCKAPETALCAAACH-NH2; disulfide 7-17, 9-21)", "values": [{"measurement": "Papp at 2 h", "setting": "[2]", "result": "1.5 ± 0.4", "unit": "×10⁻⁶ cm/s"}, {"measurement": "Transport (%) (2h)", "setting": "[3]", "result": "1.8±0.5", "unit": "%"}]}, {"compound": "CC[C@H](C)[C@H](NC(=O)[C@H](CCC(=O)O)NC(=O)[C@@H](NC(=O)[C@H](CCC(N)=O)NC(=O)[C@H](CCCCN)NC(=O)[C@@H]1CC(=O)NC[C@H](N)C(=O)N[C@@H](CCCCN)C(=O)N[C@@H](C)C(=O)N2CCC[C@H]2C(=O)N[C@@H](CCC(=O)O)C(=O)N[C@@H]([C@@H](C)O)C(=O)N[C@@H](C)C(=O)N[C@@H](CC(C)C)C(=O)N1)[C@@H](C)CC)C(=O)N[C@@H](CCCCN)C(=O)N[C@@H](CCCCN)C(=O)N[C@@H](Cc1ccccc1)C(=O)N[C@@H](CCCCN)C(N)=O", "note": "[Example 27, H-Dap-Lys-Ala-Pro-Glu-Thr-Ala-Leu-Asp-Lys-Gln-Ile-Glu-Ile-Lys-Lys-Phe-Lys-NH2] (H-[Dap]KAPETALDKQIEIKKFK-NH2; lactam 1-9)", "values": [{"measurement": "Transport (%) (2h)", "setting": "[4]", "result": "3.1±0.2", "unit": "%"}, {"measurement": "Papp at 2 h", "setting": "[5]", "result": "1.9 ± 0.1", "unit": "×10⁻⁶ cm/s"}]}, {"compound": "Gold nanoparticle-Cys-Dap-Lys-Ala-Pro-Glu-Thr-Ala-Leu-Asp-NH2 [Example 25]", "values": [{"measurement": "Transport (%) (2h)", "setting": "[4]", "result": 0.034, "unit": "%"}]}, {"compound": "H-Cys-Lys-Ala-Pro-Glu-Thr-Ala-Leu-Cys-NH2 (H-CKAPETALC-NH2; cysteine pairing not given here) [Example 2]", "values": [{"measurement": "half life in human serum", "setting": "[1]; 400 µM", "result": 3, "unit": "h"}, {"measurement": "Transport (%) (2h)", "setting": "[3]", "result": "3.1±1.0", "unit": "%"}]}, {"compound": "H-Cys-Lys-Ala-Pro-Glu-Thr-Ala-Leu-Cys-NH2 (H-CKAPETALC-NH2; cysteine pairing not given here) [Example 4]", "values": [{"measurement": "Transport (%) (2h)", "setting": "[4]", "result": "9.9±0.6", "unit": "%"}, {"measurement": "Papp (x 10^6) cm/s", "setting": "[4]; 2 h, Ringer-HEPES pH 7.4, 200 µM peptides", "result": "6.1±0.4 (x 10^6) cm/s"}]}, {"compound": "H-KAPETAL-NH2 [Example 5, H-Lys-Ala-Pro-Glu-Thr-Ala-Leu-NH2]", "values": [{"measurement": "half-life at 400 µM", "setting": "[1]", "result": "≤ 8", "unit": "min"}, {"measurement": "Papp at 2 h", "setting": "[2]", "result": "2 ± 0.6", "unit": "×10⁻⁶ cm/s"}, {"measurement": "Transport (%) (2h)", "setting": "[3]", "result": "2.3±0.8", "unit": "%"}]}, {"compound": "Quantum dot-PEG-NH-V1-Dap-Lys-Ala-Pro-Glu-Thr-Ala-Leu-Asp-NH2 [Example 24]", "values": [{"measurement": "Transport (%) (2h)", "setting": "[4]", "result": "0.23±0.09", "unit": "%"}]}]}
